# Assay results: patent publication US9545105B2, “1-(heterocyclic carbonyl) piperidines” (BAYER INTELLECTUAL PROPERTY GMBH, priority 2010, dated 2017)
# Values joined by “and” are separate entries in the source; they are usually repeats but may differ in a detail not shown here. Identical values can stand only once.
# Experiments:
# [1] = system: Sphaerotheca fuliginea; test: In vivo preventive test on Sphaerotheca fuliginea (cucumber); settings: 500 ppm of active ingredient, evaluated 7 days after inoculation
# Description: Solvent: 49 parts by weight of N,N-dimethylformamide Emulsifier: 1 part by weight of Alkylarylpolyglycolether To produce a suitable preparation of active compound, 1 part by weight of active compound is mixed with the stated amounts of solvent and emulsifier, and the concentrate is diluted with water to the desired concentration. To test for preventive activity, young plants are sprayed with the preparation of active compound at the stated rate of application. One day after this treatment, the plants are inoculated with an aqueous spore suspension of Sphaerotheca fuliginea. Then the plants are placed in a greenhouse at approximately 23° C. and a relative atmospheric humidity of approximately 70%. The test is evaluated 7 days after the inoculation. 0% means an efficacy which corresponds to that of the untreated control, while an efficacy of 100% means that no disease is observed.
# [2] = system: Alternaria solani; test: In vivo preventive test on Alternaria solani (tomato); settings: 500 ppm of active ingredient, evaluated 7 days after inoculation
# Description: Solvent: 49 parts by weight of N,N-dimethylformamide Emulsifier: 1 part by weight of Alkylarylpolyglycolether To produce a suitable preparation of active compound, 1 part by weight of active compound is mixed with the stated amounts of solvent and emulsifier, and the concentrate is diluted with water to the desired concentration. To test for preventive activity, young plants are sprayed with the preparation of active compound at the stated rate of application. One day after this treatment, the plants are inoculated with an aqueous spore suspension of Alternaria solani. The plants remain for one day in an incubation cabinet at approximately 22° C. and a relative atmospheric humidity of 100%. Then the plants are placed in an incubation cabinet at approximately 20° C. and a relative atmospheric humidity of 96%. The test is evaluated 7 days after the inoculation. 0% means an efficacy which corresponds to that of the untreated control while an efficacy of 100% means that no disease is observed.
# [3] = system: Pyrenophora teres; test: In vivo preventive test on Pyrenophora teres (barley); settings: 500 ppm of active ingredient, evaluated 7-9 days after inoculation
# Description: Solvent: 49 parts by weight of N,N-dimethylformamide Emulsifier: 1 part by weight of alkylaryl polyglycol ether To produce a suitable preparation of active compound, 1 part by weight of active compound is mixed with the stated amounts of solvent and emulsifier, and the concentrate is diluted with water to the desired concentration. To test for preventive activity, young plants are sprayed with the preparation of active compound at the stated rate of application. One day after this treatment, the plants are inoculated with an aqueous spore suspension of Pyrenophora teres. The plants remain for 48 hours in an incubation cabinet at 22° C. and a relative atmospheric humidity of 100%. Then the plants are placed in a greenhouse at a temperature of approximately 20° C. and a relative atmospheric humidity of approximately 80%. The test is evaluated 7-9 days after the inoculation. 0% means an efficacy which corresponds to that of the untreated control while an efficacy of 100% means that no disease is observed.
# [4] = log P by HPLC on reversed-phase column (C 18), EEC Directive 79/831 Annex V.A8; format: physicochemical; settings: HPLC on reversed-phase column (C 18); 40° C.; 0.1% aqueous formic acid and acetonitrile; linear gradient 10% to 90% acetonitrile
# Description: In table 1, the log P values were determined in accordance with EEC Directive 79/831 Annex V.A8 by HPLC (High Performance Liquid Chromatography) on a reversed-phase column (C 18), using the method described below: Temperature: 40° C.; Mobile phases: 0.1% aqueous formic acid and acetonitrile; linear gradient from 10% acetonitrile to 90% acetonitrile. Calibration was carried out using unbranched alkan-2-ones (comprising 3 to 16 carbon atoms) with known log P values (determination of the log P values by the retention times using linear interpolation between two successive alkanones). lambda-max-values were determined using UV-spectra from 200 nm to 400 nm and the peak values of the chromatographic signals.
Compound,Efficacy [1],Efficacy [2],Efficacy [3],logP [4]
Cc1ccccc1C1CCCCN1C(=O)c1c(C(F)F)nn(C)c1F (stereo not shown) [Example 6],95%,100%,100%,3.21
Cc1ccccc1C1CCCCN1C(=S)c1c(C(F)F)nn(C)c1F (stereo not shown) [Example 7],100%,95%,100%,3.81
Cc1ccc(C2CCCCN2C(=O)c2c(C(F)F)nn(C)c2F)cc1C (stereo not shown) [Example 9],93%,95%,100%,3.64
Cn1nc(C(F)F)c(C(=O)N2CCCCC2c2ccccc2Cl)c1F (stereo not shown) [Example 41],100%,100%,100%,3.31
Cn1nc(C(F)F)c(C(=S)N2CCCCC2c2ccccc2Cl)c1F (stereo not shown) [Example 42],100%,100%,100%,4.00
Cn1nc(C(F)F)c(C(=O)N2CCCCC2c2cccc(Cl)c2)c1F (stereo not shown) [Example 48],100%,100%,100%,3.39
Cn1nc(C(F)F)c(C(=S)N2CCCCC2c2cccc(Cl)c2)c1F (stereo not shown) [Example 49],98%,100%,100%,4.06
Cn1nc(C(F)F)c(C(=O)N2CCCCC2c2ccc(Cl)cc2)c1F (stereo not shown) [Example 56],79%,100%,100%,3.46
Cn1nc(C(F)F)c(C(=S)N2CCCCC2c2ccc(Cl)cc2)c1F (stereo not shown) [Example 57],70%,100%,100%,4.16
COc1cc(OC)cc(C2CCCCN2C(=O)c2c(C)nn(C)c2F)c1 (stereo not shown) [Example 68],83%,80%,95%,2.56
Cn1nc(C(F)F)c(C(=O)N2CCCCC2c2ccc(Cl)cc2Cl)c1F (stereo not shown) [Example 81],94%,100%,100%,3.87
CCc1nn(C)c(F)c1C(=O)N1CCCCC1c1cc(Cl)ccc1Cl (stereo not shown) [Example 82],79%,95%,90%,3.67
Cn1nc(C(F)F)c(C(=O)N2CCCCC2c2ccccc2Br)c1F (stereo not shown) [Example 91],95%,100%,100%,3.39
Cn1nc(C(F)F)c(C(=S)N2CCCCC2c2ccccc2Br)c1F (stereo not shown) [Example 92],100%,95% and 100%,100%,3.92
Cn1nc(C(F)F)c(C(=O)N2CCCCC2c2cccc(Br)c2)c1F (stereo not shown) [Example 97],96%,100%,100%,3.51
Cn1nc(C(F)F)c(C(=S)N2CCCCC2c2cccc(Br)c2)c1F (stereo not shown) [Example 98],100%,100%,100%,4.16
Cn1nc(C(F)F)c(C(=O)N2CCCCC2c2cccc(Oc3ccccc3)c2)c1F (stereo not shown) [Example 115],95%,100%,100%,3.99
Cn1nc(C(F)F)c(C(=O)N2CCCCC2c2ccc3ccccc3c2)c1F (stereo not shown) [Example 122],94%,100%,100%,3.69
Cn1nc(C(F)F)c(C(=S)N2CCCCC2c2ccc3ccccc3c2)c1F (stereo not shown) [Example 123],88%,90%,100%,4.36
CCc1noc(C)c1C(=O)N1CCCCC1c1ccc(Br)s1 (stereo not shown) [Example 126],95%,,,3.67
CC(c1ccccc1)C1CCCCN1C(=O)c1c(C(F)F)nn(C)c1F (stereo not shown) [Example 138],98%,100%,100%,3.39

Compound,Efficacy [1],Efficacy [2],Efficacy [3],logP [4]
CC(c1ccccc1Cl)C1CCCCN1C(=O)c1c(C(F)F)nn(C)c1Cl (stereo not shown) [Example 164],,89%,100%,4.06
Cn1nc(C(F)F)c(C(=O)N2CCCCC2Cc2cccc(C(F)(F)F)c2)c1F (stereo not shown) [Example 169],,100%,100%,3.59
Cn1nc(C(F)F)c(C(=O)N2CCCCC2COc2ccc3ccccc3c2)c1Cl (stereo not shown) [Example 172],,80%,90%,3.87
Cn1nc(C(F)F)c(C(=O)N2CCCCC2COc2ccc3ccccc3c2)c1F (stereo not shown) [Example 173],,100%,95%,3.68
Cn1nc(C(F)F)c(C(=O)N2CCCCC2CCc2ccccc2)c1F (stereo not shown) [Example 177],,100%,95%,3.37
Cn1nc(C(F)F)c(C(=S)N2CCCCC2CCc2ccccc2)c1F (stereo not shown) [Example 179],,95%,100%,4.06
Cc1cc(C)cc(OCCC2CCCCN2C(=O)c2c(C(F)F)nn(C)c2Cl)c1 (stereo not shown) [Example 180],,80%,80%,4.11
Cc1cc(C)cc(OCCC2CCCCN2C(=O)c2c(C(F)F)nn(C)c2F)c1 (stereo not shown) [Example 181],,100%,100%,3.92
Cn1nc(C(F)F)c(C(=O)N2CCCCC2CCOc2ccc(F)cc2F)c1F (stereo not shown) [Example 182],,100%,100%,3.29
Cn1nc(C(F)F)c(C(=O)N2CCCCC2CCOc2ccc(F)cc2F)c1Cl (stereo not shown) [Example 183],,95%,100%,3.46
Cn1nc(C(F)F)c(C(=O)N2CCCCC2CCOc2ccc(Cl)cc2Cl)c1Cl (stereo not shown) [Example 184],,95%,100%,4.26
Cn1nc(C(F)F)c(C(=O)N2CCCCC2CCOc2ccc(Cl)cc2Cl)c1F (stereo not shown) [Example 185],,100%,95%,4.06
Cn1nc(C(F)F)c(C(=O)N2CCCCC2CCOc2ccccc2-c2ccccc2)c1Cl (stereo not shown) [Example 186],,80%,95%,4.39
Cn1nc(C(F)F)c(C(=O)N2CCCCC2CCOc2ccccc2-c2ccccc2)c1F (stereo not shown) [Example 187],,95%,95%,4.21
Cn1nc(C(F)F)c(C(=O)N2CCCCC2CCOc2ccc(-c3ccccc3)cc2)c1Cl (stereo not shown) [Example 188],,70%,95%,4.49
Cn1nc(C(F)F)c(C(=O)N2CCCCC2CCOc2ccc(-c3ccccc3)cc2)c1F (stereo not shown) [Example 189],,100%,95%,4.31
Cn1nc(C(F)F)c(C(=O)N2CCCCC2CCOc2ccc3ccccc3c2)c1Cl (stereo not shown) [Example 190],,90%,95%,4.09
Cn1nc(C(F)F)c(C(=O)N2CCCCC2CCOc2ccc3ccccc3c2)c1F (stereo not shown) [Example 191],,100%,100%,3.92
Cn1nc(C(F)F)c(C(=O)N2CCCCC2CCc2cccs2)c1F (stereo not shown) [Example 194],,100%,100%,3.25
Cn1nc(C(F)F)c(C(=O)N2CCCCC2CCOc2ccc(C(F)(F)F)cn2)c1Cl (stereo not shown) [Example 195],,100%,95%,3.74
